The values that follow come from US6770467B2, “Screening method for ligands with class II P13 kinase modulating activity” (Ludwig Institute for Cancer Research, priority 1997, dated 2004).

The target of assay [1] is T1, PI3K-C2α (Homo sapiens, UniProt O00443).
T1 construct: made in house; host or cells: Sf9 insect cells (baculovirus, pAcGex vector)
Kind of assay: PI 3-kinase lipid kinase assay with recombinant GST-PI3K-C2α, PtdIns as substrate. The format is biochemical.
Procedure: Typically, PI 3-kinase assays were performed in a total volume of 50 μl containing 20 mM Hepes pH7.4. 100 mM NaCl, 0.1 mM EGTA, 0.1% β-mercaptoethanol, and 200 μM phosphoinositide. After preincubating sonicated lipid with sample for 10 minutes, the reactions were initiated upon the addition of 2.5 mM MgCl2, 100 mM ATP (0.2 μCiγ[^32 P] ATP). Assays were incubated at 30° C. for 20 minutes and terminated with acidified chloroform:methanol. The extracted lipid products were analysed by thin layer chromatography using Silica gel 60 plates and chloroform:methanol:4M ammonium hydroxide (45:35:10) for assays examining phosphorylation of Ptdlns. When separations of PtdIns 3P, PtdIns (3,4) P2 and PItdIns (3,4,5) P3 was required, propan-1-ol: 2M acetic acid (65:35) was used. Phosphorylated lipids were visualised by either autoradiography or by phosphoimage analysis (Molecular Dynamics).
The enzymatic activity and substrate specificity were investigated and compared to that of GST-p110α expressed in the same system.
(§1) The effect of these inhibitors on the lipid kinase activity of PI3K-C2α was examined, using PtdIns as a substrate, in the presence of increasing concentrations of each inhibitor.

Assay [2] concerns the target p110α (UniProt P32871). The experiment in a line: PI 3-kinase lipid kinase assay with recombinant GST-p110α, PtdIns as substrate. The format is biochemical.
Procedure: Typically, PI 3-kinase assays were performed in a total volume of 50 μl containing 20 mM Hepes pH7.4. 100 mM NaCl, 0.1 mM EGTA, 0.1% β-mercaptoethanol, and 200 μM phosphoinositide. After preincubating sonicated lipid with sample for 10 minutes, the reactions were initiated upon the addition of 2.5 mM MgCl2, 100 mM ATP (0.2 μCiγ[^32 P] ATP). Assays were incubated at 30° C. for 20 minutes and terminated with acidified chloroform:methanol. The extracted lipid products were analysed by thin layer chromatography using Silica gel 60 plates and chloroform:methanol:4M ammonium hydroxide (45:35:10) for assays examining phosphorylation of Ptdlns. When separations of PtdIns 3P, PtdIns (3,4) P2 and PItdIns (3,4,5) P3 was required, propan-1-ol: 2M acetic acid (65:35) was used. Phosphorylated lipids were visualised by either autoradiography or by phosphoimage analysis (Molecular Dynamics). Assays were linear with respect to time and enzyme addition.
as §1

Structures are written as SMILES. Read-outs that look alike come from different tables or passages of the source.

T1 sequence (O00443 148-1686): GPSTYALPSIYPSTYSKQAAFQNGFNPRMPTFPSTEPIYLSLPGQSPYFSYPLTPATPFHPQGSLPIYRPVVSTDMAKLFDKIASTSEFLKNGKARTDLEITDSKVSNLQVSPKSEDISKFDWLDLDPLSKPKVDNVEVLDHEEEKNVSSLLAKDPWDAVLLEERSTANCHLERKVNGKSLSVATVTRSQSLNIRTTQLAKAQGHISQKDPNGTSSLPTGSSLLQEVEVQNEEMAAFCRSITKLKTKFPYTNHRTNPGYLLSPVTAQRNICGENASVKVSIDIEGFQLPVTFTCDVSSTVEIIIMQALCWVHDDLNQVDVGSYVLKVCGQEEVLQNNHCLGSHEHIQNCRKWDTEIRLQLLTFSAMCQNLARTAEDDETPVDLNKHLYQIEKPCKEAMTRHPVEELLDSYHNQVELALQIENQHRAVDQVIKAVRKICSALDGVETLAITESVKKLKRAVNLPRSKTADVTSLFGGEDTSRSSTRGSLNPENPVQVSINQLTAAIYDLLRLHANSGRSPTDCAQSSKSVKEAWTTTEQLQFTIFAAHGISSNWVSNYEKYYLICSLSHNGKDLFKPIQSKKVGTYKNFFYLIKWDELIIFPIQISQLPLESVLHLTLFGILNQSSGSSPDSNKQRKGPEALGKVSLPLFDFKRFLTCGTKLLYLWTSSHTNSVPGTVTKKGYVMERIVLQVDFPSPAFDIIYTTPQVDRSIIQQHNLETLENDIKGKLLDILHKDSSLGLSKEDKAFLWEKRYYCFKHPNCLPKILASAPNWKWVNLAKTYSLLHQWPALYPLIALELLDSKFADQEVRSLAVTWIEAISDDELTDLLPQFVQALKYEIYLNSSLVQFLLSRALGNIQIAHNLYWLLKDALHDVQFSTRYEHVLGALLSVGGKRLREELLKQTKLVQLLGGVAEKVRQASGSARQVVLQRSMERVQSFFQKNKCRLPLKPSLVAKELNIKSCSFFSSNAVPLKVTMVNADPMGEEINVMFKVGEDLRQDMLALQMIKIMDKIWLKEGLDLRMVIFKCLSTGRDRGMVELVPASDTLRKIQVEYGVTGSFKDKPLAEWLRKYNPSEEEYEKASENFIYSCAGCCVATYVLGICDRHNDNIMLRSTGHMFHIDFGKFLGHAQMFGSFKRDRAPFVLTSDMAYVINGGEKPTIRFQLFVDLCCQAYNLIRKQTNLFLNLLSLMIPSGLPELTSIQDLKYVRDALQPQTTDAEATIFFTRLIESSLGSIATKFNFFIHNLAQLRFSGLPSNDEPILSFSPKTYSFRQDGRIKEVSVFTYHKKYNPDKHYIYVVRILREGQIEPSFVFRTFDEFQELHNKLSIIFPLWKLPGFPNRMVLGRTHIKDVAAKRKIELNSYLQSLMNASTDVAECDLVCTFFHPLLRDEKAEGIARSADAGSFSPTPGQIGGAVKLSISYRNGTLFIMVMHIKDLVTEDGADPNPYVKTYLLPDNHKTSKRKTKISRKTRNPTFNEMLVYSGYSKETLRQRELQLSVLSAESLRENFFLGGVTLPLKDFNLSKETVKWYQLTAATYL

In the case of `O=c1cc(N2CCOCC2)oc2c(-c3ccccc3)cccc12` [LY294002, 2-(4-morpholinyl)-8-phenyl-4H-1-benzopyran-4-one], the concentration for half-maximal inhibition (IC50) – broadly, the midpoint of a concentration-inhibition curve – in assay [1] was 20 µM. Moreover, the “difference in sensitivity between PI3K-C2α and p110α” value in assay [1] (LY294002, PI3K-C2α less sensitive than p110α) is given as “approximately one order of magnitude”. The “concentration giving maximal attenuation of PI3K-C2α lipid kinase activity” value in assay [1] (LY294002, PtdIns substrate) is on record as 2 mM. Besides, the “concentration giving maximal inhibition of p110α” value in assay [2] (LY294002, FIG. 5B) was found to be 300 µM.
`COC[C@H]1OC(=O)c2coc3c2[C@@]1(C)C1=C(C3=O)[C@@H]2CCC(=O)[C@@]2(C)C[C@H]1OC(C)=O` [Wortmannin]: the IC50 worked out at 0.2 µM in assay [1] (Wortmannin, PtdIns substrate, FIG. 5A) and 0.003 µM in assay [2] (read-out: IC50 of p110α lipid kinase activity, Wortmannin, FIG. 5A).
